Laboratory results as given in article PMC11643962, “Exploring 4,7-Disubstituted Pyrimido[4,5-d]pyrimidines as Antiviral and Anticancer Agents” (Molecules, 2024).

How the values were obtained:
[1] = system: HL-60 (acute myeloid leukemia); experiment: MTS proliferation assay, HL-60; details: Homo sapiens, HL-60, 72 h, read-out: Anti-Proliferative Activity (IC50) HL-60
[2] = in vitro; details: dog
[3] = system: herpes simplex virus-1 (HSV-1 KOS); experiment: Antiviral CPE reduction assay, HSV-1 KOS in HEL299 cells; format: cell-based; details: Human alphaherpesvirus 1, HEL 299, MTS, mean ± SD, no unit printed on the supplement page (Table 2 of the same screen is in µM)
[4] = in vitro; details: African green monkey
[5] = in vitro; details: human
[6] = system: respiratory syncytial virus A (RSV A Long); experiment: Antiviral CPE reduction assay, RSV A Long in Hep2 cells; format: cell-based; details: human respiratory syncytial virus, HEp-2; Hep2 cells; CPE reduction, MTS; mean ± SD of two or three independent experiments; read-out: Antiviral Activity (EC50) RSV A Long
[7] = system: influenza A/H1N1 (A/Ned/378/05); experiment: Antiviral CPE reduction assay, influenza A/H1N1 in MDCK cells; format: cell-based, influenza A virus; details: Influenza A virus, H1N1; MDCK cells; CPE reduction, MTS; mean ± SD of two or three independent experiments; read-out: Antiviral Activity (EC50) Influenza H1N1
[8] = system: HCT-116 (colorectal carcinoma); experiment: MTS proliferation assay, HCT-116; details: Homo sapiens, HCT-116, 72 h, read-out: Anti-Proliferative Activity (IC50) HCT-116
[9] = system: K-562 (chronic myeloid leukemia); experiment: MTS proliferation assay, K-562; details: Homo sapiens, K562, 72 h, read-out: Anti-Proliferative Activity (IC50) K-562
[10] = system: influenza B (B/Ned/537/05); experiment: Antiviral CPE reduction assay, influenza B in MDCK cells; format: cell-based, influenza B virus; details: Influenza B virus, MDCK, read-out: Antiviral Activity (EC50) Influenza B
[11] = in vitro; details: human; remark: listed apart in the source
[12] = system: Z-138 (non-Hodgkin lymphoma); experiment: MTS proliferation assay, Z-138; details: Homo sapiens, Z-138, 72 h, read-out: Anti-Proliferative Activity (IC50) Z-138
[13] = system: HCoV-OC43; experiment: Antiviral CPE reduction assay, HCoV-OC43 in HEL299 cells; format: cell-based, human coronavirus OC43; details: Betacoronavirus 1, OC43, HEL 299, MTS, mean ± SD of two or three independent experiments
[14] = system: Capan-1 (pancreatic adenocarcinoma); experiment: MTS proliferation assay, Capan-1; details: Homo sapiens, CAPAN-1, 72 h, read-out: Anti-Proliferative Activity (IC50) Capan-1
[15] = system: DND-41 (acute lymphoblastic leukemia); experiment: MTS proliferation assay, DND-41; details: Homo sapiens, DND41, 72 h, read-out: Anti-Proliferative Activity (IC50) DND-41
[16] = system: NCI-H460 (lung carcinoma); experiment: MTS proliferation assay, NCI-H460; details: Homo sapiens, NCI-H460, 72 h, read-out: Anti-Proliferative Activity (IC50) NCI-H460
[17] = system: influenza A/H3N2 (A/HK/7/87); experiment: Antiviral CPE reduction assay, influenza A/H3N2 in MDCK cells; format: cell-based, influenza A virus; details: Influenza A virus, H3N2; MDCK cells; CPE reduction, MTS; mean ± SD of two or three independent experiments; read-out: Antiviral Activity (EC50) Influenza H3N2
[18] = system: yellow fever virus (YFV 17D); experiment: microbe, parasite or virus in culture; format: cell-based; details: Yellow fever virus, Vero C1008, read-out: Antiviral activity (EC50) YFV 17D
[19] = system: variety of viruses (HSV-1, influenza viruses, yellow fever virus, Zika virus, RSV, HCoV-229E, HCoV-OC43, HCoV-NL63); format: cell-based; details: CPE reduction assays, virus panel
[20] = system: Zika virus (ZikV mr766); experiment: Antiviral CPE reduction assay, Zika virus mr766 in VeroE6 cells; format: cell-based; details: Zika virus, Vero C1008, MTS, mean ± SD, no unit printed on the supplement page (Table 2 of the same screen is in µM)
[21] = in vitro; details: human; remark: listed apart in the source
[22] = system: HCoV-229E; experiment: Antiviral CPE reduction assay, HCoV-229E in HEL299 cells; format: cell-based, human coronavirus 229E; details: Human coronavirus 229E, HEL 299, MTS, mean ± SD of two or three independent experiments
[23] = system: LN-229 (glioblastoma); experiment: MTS proliferation assay, LN-229; details: Homo sapiens, LN-229, 72 h, read-out: Anti-Proliferative Activity (IC50) LN-229
[24] = system: HCoV-NL63; experiment: Antiviral CPE reduction assay, HCoV-NL63 in Hep3B cells; format: cell-based, human coronavirus NL63; details: Human coronavirus NL63, MTS, mean ± SD of two or three independent experiments

SMILES	IC50 [1]	CC50 [2]	EC50 [3]	CC50 [4]	CC50 [5]	EC50 [6]	EC50 [7]	IC50 [8]	IC50 [9]	EC50 [10]	melting point	CC50 [11]	IC50 [12]	EC50 [13]	IC50 [14]	IC50 [15]	IC50 [16]	EC50 [17]	EC50 [18]	EC50 [20]	also measured
c1cc2c(c(Nc3ncnc4nc(NC5CC5)ncc34)c1)CCCC2 [Compound 7c, N^2-cyclopropyl-N^5-(5,6,7,8-tetrahydronaphthalen-1-yl)pyrimido[4,5-d]pyrimidine-2,5-diamine]	> 100 µM	> 50 µM	> 50 µM	> 50 µM	> 50 µM	> 50 µM	> 50 µM	> 100 µM	> 100 µM	> 50 µM	189 °C	> 50 µM	> 100 µM	> 50 µM	> 100 µM	> 100 µM	> 100 µM	> 50 µM	> 50 µM	> 50 µM	antiviral activity (in words) [19]: inactive; CC50 [21]: > 50 µM; EC50 [22]: > 50 µM; IC50 [23]: > 100 µM; EC50 [24]: > 50 µM
C#Cc1cccc(Nc2ncnc3nc(NC4CC4)ncc23)c1 [Compound 7j, N^2-cyclopropyl-N^5-(3-ethynylphenyl)pyrimido[4,5-d]pyrimidine-2,5-diamine]	> 100 µM	> 50 µM	> 50 µM	> 50 µM	> 50 µM	> 50 µM	> 50 µM	> 100 µM	> 100 µM	> 50 µM	296 °C	> 50 µM	> 100 µM	> 50 µM	> 100 µM	> 100 µM	> 100 µM	> 50 µM	> 50 µM	> 50 µM	CC50 [21]: > 50 µM; EC50 [22]: > 50 µM; IC50 [23]: > 100 µM; EC50 [24]: > 50 µM
CCN(CC)CCNc1ncc2c(Nc3cccc4c3CCCC4)ncnc2n1 [Compound 7b, N^2-[2-(Diethylamino)ethyl]-N^5-(5,6,7,8-tetrahydronaphthalen-1-yl)pyrimido[4,5-d]pyrimidine-2,5-diamine]	> 100 µM	> 50 µM	> 50 µM	> 50 µM	> 50 µM	> 50 µM	> 50 µM	> 100 µM	> 100 µM	> 50 µM	181.3 °C	> 50 µM	62.6 ± 0.8 µM	34.7 ± 16.7 µM	> 100 µM	67.1 ± 4.7 µM	> 100 µM	> 50 µM	> 50 µM	> 50 µM	CC50 [21]: > 50 µM; EC50 [22]: 11 ± 2.7 µM; IC50 [23]: > 100 µM; EC50 [24]: > 50 µM
CCN(CC)CCNc1ncc2c(Nc3cccc4c3CCC4)ncnc2n1 [Compound 7f, N^5-(2,3-dihydro-1H-inden-4-yl)-N^2-[2-(diethylamino)ethyl]pyrimido[4,5-d]pyrimidine-2,5-diamine]	> 100 µM	> 50 µM	> 50 µM	> 50 µM	> 50 µM	> 50 µM	> 50 µM	> 100 µM	> 100 µM	> 50 µM	172.9 °C	> 50 µM	> 100 µM	37.3 ± 15.1 µM	> 100 µM	> 100 µM	> 100 µM	> 50 µM	> 50 µM	> 50 µM	CC50 [21]: > 50 µM; EC50 [22]: 3.9 ± 2.9 µM; IC50 [23]: > 100 µM; EC50 [24]: > 50 µM
